Test results from ChEMBL document CHEMBL1121613.

target: Adrenergic receptor alpha (Homo sapiens) (UniProt P35348+P08913+P18825+P25100+P35368+P18089); experiment: Blocking activity towards Alpha adrenergic receptor of rabbit aortic tissue preparation was determined; conditions: Oryctolagus cuniculus; target entry is the homologue from another species

Compound | -Log KB
c1ccc(CC2NC[C@H](Cc3ccccc3)N2)cc1 (stereo partly drawn) | 5
c1ccc(CC2NC[C@@H](Cc3ccccc3)N2)cc1 (stereo partly drawn) | 4.98
c1ccc(C[C@H]2CN=C(Cc3cccc4ccccc34)N2)cc1 | 6.57
C[C@H]1CN=C(Nc2c(Cl)cccc2Cl)N1 | 5.27
c1ccc(C[C@@H]2CN=C(Cc3cccc4ccccc34)N2)cc1 | 6.34
C[C@H]1CN=C(Cc2cccc3ccccc23)N1 | 5.76
C[C@@H]1CN=C(Cc2cccc3ccccc23)N1 | 5.6
C[C@@H]1CN=C(Nc2c(Cl)cccc2Cl)N1 | 5.08
